Patent US6534504B1, “Indazolyloxy propanolamines for improving livestock production” (Eli Lilly and Company, priority 1999, dated 2003)
Read-outs that look alike come from different tables or passages of the source.

Legend:
cattle [1] = experiment: Oral administration (gavage) to cattle: serum NEFA and SUN levels; format: in vivo, cattle (Angus/Angus cross steer calves); conditions: 1 mg per kilogram body weight oral gavage, mean of five animals; for change in vivo at 1 mg/kg: Bos taurus
Description: In the present example, fifteen head of Angus/Angus cross steer calves, weighing approximately 484 pounds (220 kg) initially to 604 pounds (274 kg) by the end of these three trials, were placed in pens in the cattle facilities, at 5 calves per pen. Standard vaccination and coccidal control were administered.
Calves were fed ad libitum twice daily, approximately 10-15 pounds (4.54-6.81 kg)/day. The feeding times were staggered once treatment was initiatedto ensure that all calves were fed approximately one hour before the treatments were administered and blood samples were obtained. During the A.M. treatment period, the cattle were prevented from returning to feed until the +180 minute blood sample had been collected.
Treatments were administered once a day via oral gavage. The treatments contained 1 mg of test compound per kilogram body weight and were administered in a 50/50 PEG 200/water vehicle, followed with a flush of 20 mls of 50/50 PEG 200/water.
A baseline blood sample (T=0) was taken immediately before the oral gavage treatment was administered. At 90 minutes post-treatment (T+90 min) another blood sample was taken. The cattle were returned to their designated pens until 180 minutes post-treatment (T+180 min), when a third blood sample was collected. The calves were not allowed access to their feed until they had completed the 180 minute blood sample. Additional blood samples were collected from each calf at 24 and 48 hours post treatment.
All blood samples were taken from the jugular vein and placed into serum tubes. Serum was assayed on an IL Monarch analyzer. Blood samples were collected pretreatment (T=0), 90 minutes post-treatment (T+90 min), 180 minutes post-treatment (T+180 min) and 24 hours post-treatment (T+24 h) and 48 hours post-treatment (T+48 h). Sera at T=0, T+90 min, T+180 min, T+24 h, and T+48 h were analyzed for NEFA and SUN.

cattle [2] = experiment: Intravenous administration to cattle: serum NEFA and SUN levels; format: in vivo, cattle (Angus/Angus cross calves); conditions: mean of five animals; for Δ % SUN 24 Hours (percent decrease in serum urea nitrogen compared with baseline T=0) / ΔNEFA 24 Hours (increase in NEFA in blood compared with baseline T=0): 40 μg per kilogram intravenously at 6:30 A.M. and 2:30 P.M., 24 hours post treatment; for ΔNEFA 15 Min. (increase in NEFA in blood compared with baseline T=0): 40 μg per kilogram intravenously, 15 minutes post treatment
Text: Angus/Angus cross steer calves, both heifers and steers, weighing approximately 282 pounds (128 kg) initially to 788 pounds (358 kg) over the course of these studies, were placed in pens at 5 calves per pen. The cattle were acclimated to the pens for at least 1 week prior to initiating the study.
Calves were fed ad libitum twice daily, (approximately 6-15 pounds (2.7-6.8 kg)/day). During the treatment day, in the A.M. period, the feeding times were staggered to ensure that all animals were fed approximately one hour before the treatments were administered. During the P.M. treatment period, the cattle were fed immediately after receiving the P.M. injection.
After taking a pretreatment (T=0) blood sample from each animal, 40 μg per kilogram of a test compound was administered intravenously in the jugular vein at 6:30 A.M. and 2:30 P.M. Each test compound was administered at a concentration of 1.00-1.25 mg/ml in a treatment vehicle that was a 50/50 mixture of polyethylene glycol 200/water.
A blood sample was taken at fifteen minutes post-treatment (T+15 min). The calves were returned to their respective pens until their next treatment, approximately eight hours later. The next morning at 6:30 A.M. a blood sample was collected from all calves at 24 hours post-treatment (T+24h). All blood samples were analyzed for the non-esterified fatty acid level (NEFA) and serum urea nitrogen level (SUN). The post-treatment NEFA and SUN levels in each individual animal were compared with the levels found before treatment.

chickens = experiment: Anabolic effects when administered in feed to chickens; format: in vivo, chicken (Peterson-Hubbard male chicks)
Text: Approximately 1500 Peterson-Hubbard day-old male chicks were used in a randomized, complete block design with 6 treatments (Control; Clenbuterol at 1 PPM; Compound 1 at 3 and 15 PPM (mg/kg feed); and Compound 5 at 3 and 15 PPM) using pen location in the barn as the blocking factor. Treatments were randomly allotted to pens within each block for a total of 6 pens per block and 6 blocks in the wing. Each treatment consisted of 6 pens, with 10 birds per pen, during the experimental period.
Day-of-age birds were obtained from Pine Manor Hatchery in Goshen, Ind. Approximately 40 birds per pen were setup at random upon receipt. On day 30 of the growout period, all birds were weighed and the 15 birds closest to the block mean were selected. These birds were allowed to acclimate until day 35 of age. On this day, all remaining birds were weighed again, and the 10 birds/pen closest to the block mean were chosen for the treatment phase. Birds were provided ad libitum access to feed and water throughout the trial. All birds were fed a 23% crude protein corn-soy ration from day 1 until day 18 of age. The feed was changed to a 20% crude protein corn-soy ration for day 18 to day 49. The treatment feed was mixed using the 20% crude protein corn-soy basal ration. Treatments were administered in the feed from day 35 through day 49. Feed consumption was calculated over the entire 14 day treatment period. Birds were weighed at trial completion (day 49), and transported to Purdue University meat laboratory for slaughter and carcass measurements on day 50. Weights of the hot carcass, fat pad, and viscera were taken on all animals. Weights of the bone-in, skin-on breast, and the bone-in, skin-on leg quarters were taken only on the control treatment and the high doses of both experimental compounds.

[3] = 24 hours post treatment, read-out: Δ % SUN 24 Hours (percent decrease in serum urea nitrogen compared with baseline T=0)
[4] = 48 hours post treatment, read-out: Δ % SUN 48 Hours (percent decrease in serum urea nitrogen compared with baseline T=0)
[5] = 1 PPM in feed, 14 day treatment period
[6] = 3 PPM in feed, 14 day treatment period
[7] = 3 PPM in feed, 14 day treatment period (day 35 to 49)
[8] = 15 PPM in feed, 14 day treatment period
[9] = 15 PPM in feed, 14 day treatment period (day 35 to 49)

Structure (SMILES)	ΔNEFA 24 Hours (increase in NEFA in blood compared with baseline T=0) (cattle [1]; 24 hours post treatment)	change in vivo at 1 mg/kg (cattle [1]; [3])	change in vivo at 1 mg/kg (cattle [1]; [4])	Δ % SUN 24 Hours (percent decrease in serum urea nitrogen compared with baseline T=0) (cattle [2])	ΔNEFA 24 Hours (increase in NEFA in blood compared with baseline T=0) (cattle [2])	ΔNEFA 15 Min. (increase in NEFA in blood compared with baseline T=0) (cattle [2])	improvement in feed conversion versus control (chickens; [5])	increase in weight gain over control (chickens; [5])	improvement of feed efficiency (chickens; [6])	increase in weight gain over control (chickens; [7])	improvement of feed efficiency (chickens; [8])	increase in weight gain over control (chickens; [9])
CC(C)(Cc1ccc(Oc2ccc(C(=O)N3CCOCC3)cn2)cc1)NC[C@H](O)COc1cccc2[nH]c(=S)[nH]c12	6 µmol/L	-18%	-15%	–	–	–	–	–	–	–	–	–
CC(C)(Cc1ccc(Oc2ncccc2C(N)=O)cc1)NC[C@H](O)COc1cccc2[nH]c(=S)[nH]c12	101 µmol/L	-17%	-13%	–	–	–	–	–	–	–	–	–
CC(C)(Cc1ccc(Oc2ccc(S(C)(=O)=O)cc2)cc1)NC[C@H](O)COc1cccc2[nH]c(=S)[nH]c12	37 µmol/L	-1%	-5%	–	–	–	–	–	–	–	–	–
CC(C)(Cc1ccc(Oc2ncccc2C(N)=O)cc1)NC[C@H](O)COc1cccc2[nH]c(=O)[nH]c12	10 µmol/L	-22%	-19%	–	–	–	–	–	–	–	–	–
CC(C)(Cc1ccc(Oc2ccc(C(=O)N3CCOCC3)cn2)cc1)NC[C@H](O)COc1cccc2[nH]ncc12 [Compound 4]	1129 µmol/L	-47%	-48%	−40.1%	1251.8 µmol/L	194.8 µmol/L	–	–	–	–	–	–
CC(C)(C)NCC(O)c1cc(Cl)c(N)c(Cl)c1 (stereo not shown) [Clenbuterol]	–	–	–	–	–	–	did not show an improvement	3.54%	–	–	–	–
CC(C)(Cc1ccc(Oc2ccc(C#N)cn2)cc1)NC[C@H](O)COc1cccc2[nH]ncc12 [Compound 3]	349 µmol/L	-58%	-57%	−24.7%	1069.3 µmol/L	269.4 µmol/L	–	–	–	–	–	–
CC(C)(Cc1ccc(Oc2ccc(C(=O)N3CCOCC3)cn2)cc1)NC[C@H](O)COc1cccc2[nH]ccc12	-47 µmol/L	-45%	-28%	–	–	–	–	–	–	–	–	–
CC(C)(Cc1ccc(Oc2ccc(S(C)(=O)=O)cc2)cc1)NC[C@H](O)COc1cccc2[nH]ncc12 [Compound 5]	1216 µmol/L	-33%	-60%	−25.4%	1541.9 µmol/L	397.3 µmol/L	–	–	not improved	2.65%	3.27%	8.85%
CC(C)(Cc1ccc(Oc2ccc(C#N)cn2)cc1)NC[C@H](O)COc1cccc2[nH]c(=O)[nH]c12	18 µmol/L	2%	5%	–	–	–	–	–	–	–	–	–
CC(C)(Cc1ccc(Oc2ccc(S(C)(=O)=O)cc2)cc1)NC[C@H](O)COc1cccc2[nH]c(=O)[nH]c12	-6 µmol/L	-10%	-6%	–	–	–	–	–	–	–	–	–
CC(C)(Cc1ccc(Oc2ccc(C#N)cn2)cc1)NC[C@H](O)COc1cccc2[nH]ccc12	63 µmol/L	-55%	-40%	–	–	–	–	–	–	–	–	–
CC(C)(Cc1ccc(Oc2ccc(C(N)=O)cn2)cc1)NC[C@H](O)COc1cccc2[nH]ncc12 [Compound 1]	329 µmol/L	-38%	-32%	−28.7%	820.9 µmol/L	554.4 µmol/L	–	–	not improved	3.54%	4.67%	11.50%
CC(C)(Cc1ccc(Oc2ncccc2C(N)=O)cc1)NC[C@H](O)COc1cccc2[nH]ccc12	-30 µmol/L	-42%	-30%	–	–	–	–	–	–	–	–	–
CC(C)(Cc1ccc(Oc2ccc(C(N)=O)cc2)cc1)NC[C@H](O)COc1cccc2[nH]c(=S)[nH]c12	17 µmol/L	-8%	-12%	–	–	–	–	–	–	–	–	–
